Measured values from publication PMC5394417, “Investigating the molecular mechanism of positive and negative allosteric modulators in the calcium-sensing receptor dimer” (Scientific Reports, 2017).

What was measured:
Type in all cases: cell-based
[1] = biological target: T1, S170A/E837A:F801A heterodimer (Rattus norvegicus, UniProt P48442, E837A/F801A/S170A); assay: IP-One trans-activation assay, co-expression 1:1 in HEK293T
T1 construct: mGluR5 signal peptide (N); expressed in transfected cells; host or cells: HEK293T
T1 sequence (P48442 20-1079 S170A/E837A): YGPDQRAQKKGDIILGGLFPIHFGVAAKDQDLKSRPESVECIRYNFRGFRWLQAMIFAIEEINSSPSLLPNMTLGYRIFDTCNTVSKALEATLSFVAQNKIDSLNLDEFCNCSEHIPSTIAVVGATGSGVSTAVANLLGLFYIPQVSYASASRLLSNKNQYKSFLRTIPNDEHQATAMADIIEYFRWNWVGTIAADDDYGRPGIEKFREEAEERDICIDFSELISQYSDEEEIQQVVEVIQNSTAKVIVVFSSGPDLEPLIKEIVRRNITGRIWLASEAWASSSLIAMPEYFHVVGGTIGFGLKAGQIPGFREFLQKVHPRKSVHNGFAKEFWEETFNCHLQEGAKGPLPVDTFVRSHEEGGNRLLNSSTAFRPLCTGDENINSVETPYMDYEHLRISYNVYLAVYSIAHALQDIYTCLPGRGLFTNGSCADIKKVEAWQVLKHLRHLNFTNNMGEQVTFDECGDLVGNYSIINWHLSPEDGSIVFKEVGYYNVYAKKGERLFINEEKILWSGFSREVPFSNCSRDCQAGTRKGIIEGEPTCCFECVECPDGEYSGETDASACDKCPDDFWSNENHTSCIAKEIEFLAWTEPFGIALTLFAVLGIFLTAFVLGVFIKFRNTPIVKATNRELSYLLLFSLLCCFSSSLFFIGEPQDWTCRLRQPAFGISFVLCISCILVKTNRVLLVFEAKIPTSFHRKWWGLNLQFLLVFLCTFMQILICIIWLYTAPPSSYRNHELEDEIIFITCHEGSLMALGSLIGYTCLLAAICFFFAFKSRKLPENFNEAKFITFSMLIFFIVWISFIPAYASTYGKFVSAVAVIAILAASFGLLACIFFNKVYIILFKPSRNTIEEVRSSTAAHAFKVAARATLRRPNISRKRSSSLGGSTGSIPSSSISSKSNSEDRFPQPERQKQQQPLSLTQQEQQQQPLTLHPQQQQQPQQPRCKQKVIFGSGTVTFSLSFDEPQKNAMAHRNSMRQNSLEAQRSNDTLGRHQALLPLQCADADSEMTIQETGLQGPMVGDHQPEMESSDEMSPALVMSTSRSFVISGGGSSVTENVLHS
T1 sequence (P48442 20-1079 F801A): as the sequence (P48442 20-1079 S170A/E837A) above, with A151S, F782A, A818E counted along it
Experimental: (§1) Human embryonic kidney (HEK) 293T cells were cultured in DMEM supplemented with 10% dFBS and 1% P/S at 37 °C and 5% CO2. 48 h prior to assay, transient transfection was performed using Lipofectamine 2000 as the transfection reagent. White opaque 96-well culture plates (PerkinElmer, Waltham, MA, USA) were used for the ELISA and the TR-FRET dimerization assay, while clear tissue culture treated 96-well plates (Corning, Corning, NY, USA) were used for the IP-One assay. Both plate types were coated with poly-D-lysine before addition of cells and transfection mix. 0.25 μl/well of Lipofectamine 2000 were diluted in 25 μl/well of Opti-MEM and incubated at room temperature (RT) for 5 min. 0.03 μg/well of DNA was diluted in 25 μl/well of Opti-MEM, and subsequently mixed with the Lipofectamine 2000 dilution and incubated 20 min at RT before addition to the plates. Cell suspensions of 170.000 HEK293T cells/mL were prepared in complete growth medium and 100 μl/well (17.000 cells/well) was added to the plates, which were incubated for 48 h at 37 °C and 5% CO2 before performing assays.
(§2) Functional activity was measured using the IP-One assay, which is an IP1 accumulation assay. For agonist testing, ligands were prepared in final concentrations in ligand buffer (HBSS, 20 mM HEPES, pH 7.4 supplemented with 20 mM LiCl). Cells were washed once with 100 μl/well of assay buffer (HBSS, 20 mM HEPES, pH 7.4) and 50 μl/well of agonist solution was added after which plates were incubated at 37 °C for 30 min. Subsequently, ligand solutions were removed and cells were washed with 100 μl/well of assay buffer. Cell lysis was performed by addition of 30 μl/well of IP-One Conjugate & Lysis Buffer (Cisbio Bioassays, Codolet, France) and plates were incubated at RT for 30 min. Afterwards, 30 μl/well of assay buffer was added to dilute the cell lysate. 10 μl/well of cell lysate was transferred from the 96-well plate to a 384-well Optiplate and 10 μl/well of detection solution (Assay buffer + 2.5% of anti-IP1 antibody cryptate Terbium conjugate + 2.5% IP1-d2 conjugate (Cisbio Bioassays, Codolet, France)) was also added. The 384-well plate was incubated for 1 h at RT in dark before being measured on an EnVision plate reader (PerkinElmer, Waltham, MA, USA). Upon excitation at 340 nm, emission at 615 nm and 665 nm was measured, and the FRET ratio (665 nm/615 nm) was converted to IP1 concentrations by interpolating values from an IP1 standard curve generated from a provided IP1 calibrator (Cisbio Bioassays, Codolet, France). When testing allosteric modulators, cells were pre-incubated for 30 min at 37 °C with 50 μl/well of ligand buffer supplemented with allosteric modulator and a final concentration of 1% DMSO. Afterwards, the buffer solution was removed and 50 μl/well of agonist solution in ligand buffer supplemented with allosteric modulator and a final concentration of 1% DMSO was added. Plates were incubated for 30 min at 37 °C followed by one wash in 100 μl/well of assay buffer. Cell lysis and detection was performed as described above.

HA-CaSR WT + myc CaSR-WT = biological target: T2, HA-CaSR WT + myc CaSR-WT (Rattus norvegicus, UniProt P48442); assay: IP-One assay, co-expression 1:1 in HEK293T
T2 construct: mGluR5 signal peptide (N); expressed in transfected cells; host or cells: HEK293T
T2 sequence (P48442 20-1079) 1: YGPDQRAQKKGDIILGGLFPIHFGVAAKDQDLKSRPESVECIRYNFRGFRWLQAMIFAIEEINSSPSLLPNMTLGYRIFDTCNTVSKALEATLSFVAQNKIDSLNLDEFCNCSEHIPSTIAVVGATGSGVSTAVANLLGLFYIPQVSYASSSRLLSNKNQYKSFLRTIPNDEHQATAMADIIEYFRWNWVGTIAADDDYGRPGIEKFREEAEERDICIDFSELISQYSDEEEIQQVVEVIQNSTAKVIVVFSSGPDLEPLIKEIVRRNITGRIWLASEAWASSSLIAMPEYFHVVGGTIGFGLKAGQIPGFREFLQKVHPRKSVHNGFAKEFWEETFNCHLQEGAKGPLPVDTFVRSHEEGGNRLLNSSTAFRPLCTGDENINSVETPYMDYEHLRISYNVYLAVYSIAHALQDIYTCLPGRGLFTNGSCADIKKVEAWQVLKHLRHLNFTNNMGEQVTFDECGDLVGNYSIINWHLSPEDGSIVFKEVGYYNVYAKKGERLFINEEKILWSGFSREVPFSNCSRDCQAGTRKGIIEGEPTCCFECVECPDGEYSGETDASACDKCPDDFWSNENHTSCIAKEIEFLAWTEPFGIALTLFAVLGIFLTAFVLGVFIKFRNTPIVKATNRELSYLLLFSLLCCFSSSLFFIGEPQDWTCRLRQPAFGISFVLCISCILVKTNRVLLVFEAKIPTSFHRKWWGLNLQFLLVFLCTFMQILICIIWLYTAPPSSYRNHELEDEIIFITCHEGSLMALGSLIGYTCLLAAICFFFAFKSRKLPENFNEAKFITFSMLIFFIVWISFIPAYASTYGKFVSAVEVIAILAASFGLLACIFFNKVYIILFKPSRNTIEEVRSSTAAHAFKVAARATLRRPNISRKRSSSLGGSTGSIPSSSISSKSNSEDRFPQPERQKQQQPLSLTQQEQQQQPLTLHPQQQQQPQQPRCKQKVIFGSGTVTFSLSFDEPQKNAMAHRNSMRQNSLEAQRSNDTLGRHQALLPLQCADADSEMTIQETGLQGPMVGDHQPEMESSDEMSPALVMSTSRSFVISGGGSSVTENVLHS
T2 sequence (P48442 20-1079) 2: T2 sequence (P48442 20-1079) 1
Experimental: as §1
as §2, with “Afterwards, the buffer solution was removed and 50 μl/well of agonist solution in ligand buffer supplemented with allosteric modulator and a final concentration of 1% DMSO was added. Plates were incubated for 30 min at 37 °C followed by one wash in 100 μl/well of assay buffer. Cell lysis and detection was performed as described above.” left out

HA-CaSR WT = biological target: T3, HA-CaSR WT (Rattus norvegicus, UniProt P48442); assay: IP-One assay (IP1 accumulation, Gq signaling), HEK293T transiently transfected
T3 construct: mGluR5 signal peptide (N); expressed in transfected cells; host or cells: HEK293T
T3 sequence (P48442 20-1079): T2 sequence (P48442 20-1079) 1
Experimental: as §1, §2

myc-CaSR-F801A = biological target: T4, myc-CaSR-F801A (Rattus norvegicus, UniProt P48442, F801A); assay: IP-One assay, co-expression with pEGFPN1 in HEK293T; details: concentrations up to 45 mM Ca^2+
T4 construct: mGluR5 signal peptide (N); expressed in transfected cells; host or cells: HEK293T
T4 sequence (P48442 20-1079 F801A): as the sequence (P48442 20-1079 S170A/E837A) above, with A151S, F782A, A818E counted along it
Experimental: as §1, with “Cell suspensions of 170.000 HEK293T cells/mL were prepared in complete growth medium and 100 μl/well (17.000 cells/well) was added to the plates, which were incubated for 48 h at 37 °C and 5% CO2 before performing assays.” left out
Functional activity was measured using the IP-One assay, which is an IP1 accumulation assay. […] The 384-well plate was incubated for 1 h at RT in dark before being measured on an EnVision plate reader (PerkinElmer, Waltham, MA, USA). Upon excitation at 340 nm, emission at 615 nm and 665 nm was measured, and the FRET ratio (665 nm/615 nm) was converted to IP1 concentrations by interpolating values from an IP1 standard curve generated from a provided IP1 calibrator (Cisbio Bioassays, Codolet, France). […]

potentiation of Ca^2+-mediated response ([1]; S170A/E837A:F801A heterodimer, 0.05, 0.1 and 1 μM NPS R-568) | effect on Ca^2+-mediated response ([1]; S170A/E837A:F801A heterodimer, highest tested concentration of NPS R-568 (1 μM)) | EC50 (HA-CaSR WT + myc CaSR-WT; Ca^2+ alone) [mM] | Hill coefficient ± S.E.M. (HA-CaSR WT + myc CaSR-WT; Ca^2+ alone) | pEC50 ± S.E.M. (HA-CaSR WT + myc CaSR-WT; Ca^2+ alone) | Max ± S.E.M. (HA-CaSR WT + myc CaSR-WT; normalized to maximum response of WT CaSR) [%] | EC50 (HA-CaSR WT; Ca^2+ alone, Table 1) [mM] | Hill coefficient ± S.E.M. (HA-CaSR WT; Ca^2+ alone, Table 1) | pEC50 ± S.E.M. (HA-CaSR WT; Ca^2+ alone, Table 1) | EC50 (HA-CaSR WT; Ca^2+ alone, Table 3) [mM] | pEC50 ± S.E.M. (HA-CaSR WT; Ca^2+ alone, Table 3) | Max ± S.E.M. (HA-CaSR WT; Ca^2+ alone, normalized to maximum response of WT CaSR, Table 3) | EC50 (HA-CaSR WT; Ca^2+ with 1 μM NPS R-568) [mM] | pEC50 ± S.E.M. (HA-CaSR WT; Ca^2+ with 1 μM NPS R-568) | Max ± S.E.M. (HA-CaSR WT; Ca^2+ with 1 μM NPS R-568, normalized to maximum response with Ca^2+ alone for the construct) [%] | EC50 (HA-CaSR WT; Ca^2+ with 5 μM NPS 2143) [mM] | pEC50 ± S.E.M. (HA-CaSR WT; Ca^2+ with 5 μM NPS 2143) | Max ± S.E.M. (HA-CaSR WT; Ca^2+ with 5 μM NPS 2143, normalized to maximum response with Ca^2+ alone for the construct) [%] | Max ± S.E.M. (HA-CaSR WT; normalized to maximum response of WT CaSR, Table 1) [%] | functional response to Ca^2+ (myc-CaSR-F801A) | SMILES
no potentiation was observed | inhibited | – | – | – | – | – | – | – | – | – | – | – | – | – | – | – | – | – | – | COc1cccc([C@@H](C)NCCCc2ccccc2Cl)c1.Cl [NPS R-568, NPS R-568 hydrochloride]
– | – | 2.98 | 4.24 ± 0.19 | 2.53 ± 0.02 | 100 | 3.77 | 3.62 ± 0.48 | 2.42 ± 0.01 | 3.21 | 2.49 ± 0.01 | ≈100% | 1.28 | 2.89 ± 0.01 | 110 ± 11 | 8.4 | 2.08 ± 0.01 | 72 ± 5.6 | 100 | non-functional | [Ca+2] [Ca^2+]
